These results are taken from PubChem BioAssay AID330 (DTP/NCI, 2004).

Where “and” joins values, the source holds several entries; their conditions need not be identical. Identical values can stand only once. Inconclusive results and toxic doses are left out. Square brackets hold non-standard residues; d marks the D form. Peptide text beside a SMILES is read from it. Nva = CCC[CH](N)C(=O)O

In this assay the test system is P388 leukemia ip, CD2F1 mice, survival T/C. Put plainly: NCI In Vivo Anticancer Drug Screen. Data for tumor model P388 Leukemia (intraperitoneal) in CD2F1 (CDF1) mice. Conditions: endpoint: median survival time, higher = longer survival. The essentials: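 Mice carrying the transplanted tumor received test compound or vehicle. Survival was recorded in each group, and the value is the treated-group measurement divided by that of the vehicle-treated control group.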

The mark [1] stands for this setting: dose: 50.0 mg/kg/injection, schedule: Q01DX009 (ip), vehicle: saline.
Where [2] appears, read: dose: 100.0 mg/kg/injection, schedule: Q01DX009 (ip), vehicle: saline.
The mark [3] stands for this setting: dose: 200.0 mg/kg/injection, schedule: Q01DX009 (ip), vehicle: saline.
Setting [4] is: dose: 25.0 mg/kg/injection, schedule: Q01DX009 (ip), vehicle: Klucel (hydroxypropylcellulose) (HPC).
The mark [5] stands for this setting: dose: 50.0 mg/kg/injection, schedule: Q01DX009 (ip), vehicle: Klucel (hydroxypropylcellulose) (HPC).
[6] abbreviates: dose: 100.0 mg/kg/injection, schedule: Q01DX009 (ip), vehicle: Klucel (hydroxypropylcellulose) (HPC).
The mark [7] stands for this setting: dose: 50.0 mg/kg/injection, schedule: Q01DX009 (ip), vehicle: saline with Tween-80.
The mark [8] stands for this setting: dose: 100.0 mg/kg/injection, schedule: Q01DX009 (ip), vehicle: saline with Tween-80.
The mark [9] stands for this setting: dose: 60.0 mg/kg/injection, schedule: Q01DX005 (ip), vehicle: Klucel (hydroxypropylcellulose) (HPC).
[10] abbreviates: dose: 120.0 mg/kg/injection, schedule: Q01DX005 (ip), vehicle: Klucel (hydroxypropylcellulose) (HPC).
Where [11] appears, read: dose: 240.0 mg/kg/injection, schedule: Q01DX005 (ip), vehicle: Klucel (hydroxypropylcellulose) (HPC).

As for `Oc1cncc2ncccc12`, the T/C by setting is: under setting [1], 106 % of control; under setting [2], 100 % of control; under setting [3], 100 % of control.

For the molecule `CCCCNC1Cc2ccccc2CC1O` (stereo not given), the T/C reads like this: (dose: 0.79 mg/kg/injection, schedule: Q01DX005 (ip), vehicle: saline) 100 % of control and 107 % of control; (dose: 1.56 mg/kg/injection, schedule: Q01DX005 (ip), vehicle: saline) 100 % of control and 104 % of control; (dose: 3.12 mg/kg/injection, schedule: Q01DX005 (ip), vehicle: saline) 101 % of control and 105 % of control and 115 % of control; (dose: 6.25 mg/kg/injection, schedule: Q01DX005 (ip), vehicle: saline) 100 % of control and 108 % of control and 121 % of control; (dose: 12.5 mg/kg/injection, schedule: Q01DX005 (ip), vehicle: saline) 104 % of control.

For `COc1ccccc1CNCCCCCCNCCSSCCNCCCCCCNCc1ccccc1OC`, the T/C was 102 % of control (dose: 12.5 mg/kg/injection, schedule: Q04DX002 (ip), vehicle: suspension in saline) and 97 % of control (dose: 25.0 mg/kg/injection, schedule: Q04DX002 (ip), vehicle: suspension in saline).

In the case of `O=C(O)c1ccc([N+](=O)[O-])o1`, the T/C is, setting by setting: under setting [4], 99 % of control; under setting [5], 89 % of control; under setting [6], 96 % of control.

Regarding `O=C(/C=C/c1ccco1)c1ccc(O)c(C(=O)O)c1`, the T/C is, setting by setting: (dose: 25.0 mg/kg/injection, schedule: Q01DX009 (ip), vehicle: saline with Tween-80) 99 % of control; under setting [7], 105 % of control; under setting [8], 102 % of control.

As to `CCCCCCCC[N+](C)(CCCCCCCC)CCCCCCCC`, the T/C is 104 % of control (dose: 1.0 mg/kg/injection, schedule: Q04DX003 (ip), vehicle: saline); 104 % of control (dose: 2.0 mg/kg/injection, schedule: Q04DX003 (ip), vehicle: saline); 108 % of control (dose: 4.0 mg/kg/injection, schedule: Q04DX003 (ip), vehicle: saline).

As to `O=C(CC1=NC2NN(c3ccccc3)C(=O)C2=C1CC(=O)c1ccccc1)c1ccccc1` (stereo not given), the T/C (dose: 60.0 mg/kg/injection, schedule: Q01DX005 (ip), vehicle: saline) is 100 % of control; the T/C (dose: 120.0 mg/kg/injection, schedule: Q01DX005 (ip), vehicle: saline) was 107 % of control; the T/C (dose: 240.0 mg/kg/injection, schedule: Q01DX005 (ip), vehicle: saline) is 110 % of control.

Regarding `CC1=C[C@H]2[C@@]3(O)[C@H](C)[C@@H](OC(=O)c4ccccc4)[C@]4(OC(=O)c5ccccc5)[C@H]([C@@H]3C=C(COC(=O)c3ccccc3)C[C@]2(O)C1=O)C4(C)C`, the T/C is 100 % of control (dose: 20.0 micrograms/kg/injection, schedule: Q01DX009 (ip), vehicle: saline + alcohol); 96 % of control (dose: 40.0 micrograms/kg/injection, schedule: Q01DX009 (ip), vehicle: saline + alcohol); 102 % of control (dose: 80.0 micrograms/kg/injection, schedule: Q01DX009 (ip), vehicle: saline + alcohol); 100 % of control (dose: 160.0 micrograms/kg/injection, schedule: Q01DX009 (ip), vehicle: saline + alcohol); 94 % of control (dose: 320.0 micrograms/kg/injection, schedule: Q01DX009 (ip), vehicle: saline + alcohol).

Take `CCCC(N)C(=O)NC(C(=O)O)C(C)C` (stereo not given) (H-[Nva]-Val-OH; configuration not given here): the T/C was 100 % of control under setting [1], 103 % of control under setting [2] and 100 % of control under setting [3].

`C#C/C=C/CC1O[C@H](/C=C/C)C/C=C\CC1Cl` (stereo not given in full): the T/C is 94 % of control (dose: 7.8 mg/kg/injection, schedule: Q01DX005 (ip), vehicle: Klucel (hydroxypropylcellulose) (HPC)); 99 % of control (dose: 15.62 mg/kg/injection, schedule: Q01DX005 (ip), vehicle: Klucel (hydroxypropylcellulose) (HPC)); 96 % of control (dose: 31.25 mg/kg/injection, schedule: Q01DX005 (ip), vehicle: Klucel (hydroxypropylcellulose) (HPC)); 88 % of control (dose: 62.5 mg/kg/injection, schedule: Q01DX005 (ip), vehicle: Klucel (hydroxypropylcellulose) (HPC)).

`C/C(=N\O)c1ccccc1N=Nc1ccc(N(CCCl)CCCl)cc1C`: the T/C was 100 % of control (dose: 50.0 mg/kg/injection, schedule: Q01DX001 (ip), vehicle: Klucel (hydroxypropylcellulose) (HPC)); 98 % of control (dose: 100.0 mg/kg/injection, schedule: Q01DX001 (ip), vehicle: Klucel (hydroxypropylcellulose) (HPC)); 104 % of control (dose: 200.0 mg/kg/injection, schedule: Q01DX001 (ip), vehicle: Klucel (hydroxypropylcellulose) (HPC)).

For `COc1ccc2c(=O)cc(-c3ccccc3)sc2c1`, the T/C was 106 % of control under setting [9], 104 % of control under setting [10] and 98 % of control under setting [11].

Consider `COc1cc(/C=C/C=C/c2ccccc2)oc(=O)c1`, for which the T/C (dose: 100.0 mg/kg/injection, schedule: Q04DX003 (ip), vehicle: Klucel (hydroxypropylcellulose) (HPC)) is 91 % of control; the T/C (dose: 200.0 mg/kg/injection, schedule: Q04DX003 (ip), vehicle: Klucel (hydroxypropylcellulose) (HPC)) is 90 % of control; the T/C (dose: 400.0 mg/kg/injection, schedule: Q04DX003 (ip), vehicle: Klucel (hydroxypropylcellulose) (HPC)) is 92 % of control.

For the molecule `[O-][n+]1cccc2c3ccccc3ncc21`, the T/C was 94 % of control (dose: 6.25 mg/kg/injection, schedule: Q04DX002 (ip), vehicle: saline with Tween-80); 108 % of control (dose: 12.5 mg/kg/injection, schedule: Q04DX002 (ip), vehicle: saline with Tween-80); 100 % of control (dose: 25.0 mg/kg/injection, schedule: Q04DX002 (ip), vehicle: saline with Tween-80).

As to `c1ccc(C[n+]2ccc3ccccc3c2)cc1`, the T/C is 101 % of control (dose: 6.25 mg/kg/injection, schedule: Q04DX003 (ip), vehicle: saline with Tween-80); 100 % of control (dose: 12.5 mg/kg/injection, schedule: Q04DX003 (ip), vehicle: saline with Tween-80); 101 % of control (dose: 25.0 mg/kg/injection, schedule: Q04DX003 (ip), vehicle: saline with Tween-80).

In the case of `COc1cc(NCC2COc3c(ccc(OC)c3OC)C2=O)c([N+](=O)[O-])cc1OC` (stereo not given), the T/C by setting is: under setting [9], 90 % of control; under setting [10], 92 % of control; under setting [11], 86 % of control.

With `O=C(c1ccccc1)C1C(c2ccccc2)SC(c2ccccc2)CC1(O)Cl` (stereo not given), the T/C (dose: 100.0 mg/kg/injection, schedule: Q04DX002 (ip), vehicle: Klucel (hydroxypropylcellulose) (HPC)) was 87 % of control; the T/C (dose: 200.0 mg/kg/injection, schedule: Q04DX002 (ip), vehicle: Klucel (hydroxypropylcellulose) (HPC)) was 87 % of control; the T/C (dose: 400.0 mg/kg/injection, schedule: Q04DX002 (ip), vehicle: Klucel (hydroxypropylcellulose) (HPC)) is 87 % of control.

In the case of `Clc1ccc(C2=CSC3=NCCN23)cc1`, the T/C by setting is: (dose: 12.5 mg/kg/injection, schedule: Q01DX009 (ip), vehicle: Klucel (hydroxypropylcellulose) (HPC)) 111 % of control; under setting [4], 110 % of control.

Take `CCc1nn(Cc2ccccc2)c2nc(C)c(CCc3ccccc3)c(Cl)c12`: the T/C reads like this: under setting [9], 92 % of control; under setting [10], 91 % of control; under setting [11], 94 % of control.

In the case of `Cc1ccc2c(/C=C/c3ccc(N(C)C)cc3)ccnc2c1C`, the T/C is 123 % of control (dose: 12.5 mg/kg/injection, schedule: Q01DX009 (ip), vehicle: saline with Tween-80); 150 % of control under setting [7]; 99 % of control under setting [8].

Turning to `COc1ccc2c(c1OC)C[C@@H]1c3c(cc4c(c3-2)OCO4)CCN1C`, the T/C (dose: 6.25 mg/kg/injection, schedule: Q01DX005 (ip), vehicle: Klucel (hydroxypropylcellulose) (HPC)) was 117 % of control; the T/C (dose: 12.5 mg/kg/injection, schedule: Q01DX005 (ip), vehicle: Klucel (hydroxypropylcellulose) (HPC)) was 105 % of control; the T/C (dose: 25.0 mg/kg/injection, schedule: Q01DX005 (ip), vehicle: Klucel (hydroxypropylcellulose) (HPC)) is 96 % of control; the T/C (dose: 50.0 mg/kg/injection, schedule: Q01DX005 (ip), vehicle: Klucel (hydroxypropylcellulose) (HPC)) was 92 % of control.

As to `Nc1cccc(SC2CC(=O)N(c3ccc(Cl)cc3C(=O)c3ccccc3)C2=O)c1` (stereo not given), the T/C was 105 % of control under setting [5]; 99 % of control under setting [6]; 89 % of control (dose: 200.0 mg/kg/injection, schedule: Q01DX009 (ip), vehicle: Klucel (hydroxypropylcellulose) (HPC)).
